Laboratory results: US20140194361A1, “Vault Agents for Treating Chronic Kidney Disease” (priority 2010, published 2014)
“Also recorded” adds a separate entry of the source. No end group written: not given here.

Key:
[1] = tested on: extracellular matrix and signaling proteins of DN; assay: expression of extracellular matrix and signaling proteins of DN in cells (immunoblotting); type: cell-based; settings: for expression of extracellular matrix and signaling proteins of DN: serum-starved 48 h, treated 48 h, vs RGE/CRGE peptides
Description: Cells were serum-starved for 48 h and then untreated or treated with or without the unmodified RGD/RGE and modified CRGD/CRGE peptide for 48 h.

[2] = tested on: aged type 2 diabetic db/db mice; assay: regression of established DN in aged type 2 diabetic db/db mice; type: in vivo
[3] = tested on: type 1 diabetic Ins2Akita/+ mice; assay: prevention of progression of DN in type 1 diabetic Ins2Akita/+ mice; type: in vivo
Description: (§1) We investigated the ability of cyclic GRGDSP vs. GRGESP in a pilot study to prevent accumulation of glomerular lesions in early DN in 20 week old diabetic type 2 db/db vs non-diabetic db/m and diabetic type 1 Ins2Akita+ vs. non-diabetic Ins2+/+ mice with GRGESP and […] and observed up to 52% reduction in albuminuria in the type 2 diabetic mice (FIGS. 1-2) and ˜70% reduction in albuminuria in the type 1 diabetic mice (FIG. 6).

[4] = tested on: type 2 diabetic db/db mice; assay: prevention of progression of early DN in type 2 diabetic db/db mice; type: in vivo
Source text: There was no change in blood pressure or plasma glucose in either the diabetic or non-diabetic animals.
There was no change in creatinine clearance in the cyclic-GRGESP-control peptide treated diabetic animals
In addition, glomerular volume measured by fractional volume of expansion by electron microscopy was normalized, p<0.05 after 12 weeks of treatment.
as §1

integrin = assay: experimentally verified RGD inhibitors blocking fibronectin adhesion to integrin
Source text: Preferably, the synthetic analog inhibitors should have higher affinity to the integrin than the RGD loop of fibronectin. […] These two cyclic peptides were also used as reference structures to construct new inhibitors.
Combining the experimental results with the data obtained from our calculations we were able to predict the efficiency of the various inhibitors and to determine which structure is the most favorable fragment with regard to integrin binding energy.

[5] = 2400 μg/kg, after 4, 8 and 12 weeks of treatment
[6] = type 2 and type 1 diabetic mice, 400-2400 μg/kg

## GRGDSP [cyclic-GRGDSP]
[1]
  expression of extracellular matrix and signaling proteins of DN: significantly reduced
[2]; 21-week-old db/db mice, 2400-4800 μg/kg, 4 weeks i.p.
  reduction in albuminuria: up to 71%
[2]; 2400-4800 μg/kg, 4 weeks i.p.
  expression of fibronectin, collagen I, collagen IV, TGF-β, ERK/MAPK and Nox4 (Western blot of kidney cortical tissues): reduced expression
  glomerulosclerosis index (Periodic Schiff stained kidney section): significant reduction
  mesangial expansion: reduced mesangial expansion
[2]; 3600 and 4800 μg/kg, 4 weeks intraperitoneal, dose-dependent
  reduction of albumin excretion rate: up to 71%
[2]; 3600 and 4800 μg/kg, 4 weeks, dose-dependent
  glomerular extracellular matrix proteins (fibronectin, collagen I and collagen IV): reduced glomerular extracellular matrix proteins
[2]; 3600 and 4800 μg/kg, dose-dependent
  expression of known signaling molecules of DN: reduced the expression
[3]; [5]
  albuminuria measured as albumin-to-creatinine ratio: ameliorated albuminuria
[3]; after 12 weeks of treatment
  glomerular expression of extracellular matrix proteins (fibronectin, collagen I and collagen IV): reduced glomerular expression of extracellular matrix proteins
[3]; type 1 diabetic mice, 400-2400 μg/kg
  reduction in albuminuria: ~70%
[4]; [5]
  amelioration of albumin excretion rate: up to 52%
[4]; after 12 weeks of treatment
  glomerular extracellular matrix expansion (periodic acid Schiff staining): prevented glomerular extracellular matrix expansion
  glomerular volume (fractional volume of expansion by electron microscopy): normalized
[4]; control type 2 diabetic animals, 2400 μg/kg
  albumin excretion rate in control animals: did not alter
[4]; db/db vs db/m mice, 400-2400 μg/kg, after 4 weeks of treatment, vs cyclic-GRGESP control
  albumin excretion rate: ameliorating albumin excretion rate in a dose dependent manner
[4]; [6]
  DN signaling proteins by Western blot: significant reduction
  glomerular expression extracellular matrix by Periodic Acid Schiff and electron microscopy: significant reduction
[4]; type 2 diabetic mice, 400-2400 μg/kg
  reduction in albuminuria: up to 52%

## CGRGDSP (also: cyclic peptide, ring closure not given here) [cyclic GRGDSP peptide with an added cysteine linker (free cysteine residue)]
[1]; kinetic studies and immunoblotting
  integrin-mediated cellular signaling by TGF-β, AKT and STAT3: inhibition
[1]
  expression of extracellular matrix and signaling proteins of DN: significantly reduced

## cyc-RGDSPSG (cyclised or stapled)
integrin
  efficiency as inhibitor (experimentally verified): efficient inhibitors

## cyc-RGDSPCG
integrin
  efficiency as inhibitor (experimentally verified): efficient inhibitors

## cyc-RGDSPG
integrin
  efficiency as inhibitor (experimentally verified): successful candidate of inhibitors; also recorded: efficient inhibitors
